Read-outs that look alike come from different tables or passages of the source.
Assays:
[1] = tested on: Huh7 cells expressing a subgenomic RNA replicon of Con1 (genotype 1b) sequence origin; experiment: microbe, parasite or virus in culture; conditions: Hepatitis C virus
[2] = in vitro; conditions: human
[3] = Huh-7, read-out: IC50 (uM) [SG]
[4] = Huh-7, read-out: Max Effect@CC30 (inhibition)
[5] = GETYPE1B, Huh-7, 72 h, read-out: Max Effect @CC30 (inhibition)

| SMILES | IC90 ([1]; Huh-7) | IC50 [1, 3] | CC50 ([2]; CC50 (uM) [SG]) | IC50 ([1]; Huh-7) | Emax [1, 4] | CC50 ([2]; CC50 (uM)) | Emax [1, 5] | IC50 ([1]; Huh-7, 72 h) | CC50 at 72 h ([2]; CC50 (uM)) |
| --- | --- | --- | --- | --- | --- | --- | --- | --- | --- |
| CSc1ccc(Oc2ccc(S(N)(=O)=O)cc2CN2CCCCC2)cc1C [Compound 73, 4-(3-methyl-4-(methylthio)phenoxy)-3-(piperidin-1-ylmethyl)benzenesulfonamide] | 13.6 µM | 4.7 µM | 37.9 µM | – | – | – | – | – | – |
| CNc1ccc(Oc2ccc(SC)c(C)c2)c(CN(C)C)c1 [Compound 25, 3-((dimethylamino)methyl)-N-methyl-4-(3-methyl-4-(methylthio)phenoxy)aniline] | – | 20 µM | 46.9 µM | – | – | – | – | – | – |
| CN[C@H]1CC[C@@H](c2ccc(Cl)c(Cl)c2)c2ccc(NC(=O)c3ccccc3)cc21 [Sertraline A-Ring Reverse Benzamide, N-((5S,8S)-5-(3,4-dichlorophenyl)-8-(methylamino)-5,6,7,8-tetrahydronaphthalen-2-yl)benzamide] | 3.88 µM | 2.94 µM | 3.67 µM | 2.94 µM | 62.2% | 3.67 µM | – | – | – |
| CNCc1cc(Br)ccc1Oc1cccc(OC)c1 [Compound 37, (5-bromo-2-(3-methoxyphenoxy)phenyl)-N-methylmethanamine] | – | 27.7 µM | 46.9 µM | – | 12.4% | – | – | – | – |
| CSc1ccc(Oc2ccc(C(N)=O)cc2CN(C)C)cc1C [Compound 10, 3-((dimethylamino)methyl)-4-(3-methyl-4-(methylthio)phenoxy)benzamide] | – | 26.9 µM | > 50 µM | – | 80.7% | – | – | – | – |
| CC(C)C1=CC[C@@H](c2ccc(Cl)c(Cl)c2)c2ccc(C(N)=O)cc21 [(S)-5-(3,4-dichlorophenyl)-8-isopropyl-5,6-dihydronaphthalene-2-carboxamide] | – | 21.5 µM | > 50 µM | – | – | – | – | – | – |
| CSc1ccc(Oc2ccc(S(N)(=O)=O)cc2CN2CCC[C@H]2CN2CCCC2)cc1C [Compound 105, (S)-4-(3-methyl-4-(methylthio)phenoxy)-3-(((2-pyrrolidin-1-ylmethyl)pyrrolidin-1-yl)methyl)benzensulfonamide] | 6.86 µM | 6.38 µM | 22.2 µM | – | – | – | – | – | – |
| CSc1ccc(Oc2ccc(S(=O)(=O)Nc3ccccc3)cc2CN(C)C)cc1C [Compound 49, 3-((dimethylamino)methyl)-4-(3-methyl-4-(methylthio)phenoxy)-N-phenylbenzenesulfonamide] | – | 6.53 µM | 10.8 µM | – | 15.3% | – | – | – | – |
| CSc1ccc(Oc2ccc(S(N)(=O)=O)cc2CN2CCN(c3ccccc3)CC2)cc1C [Compound 93, 4-(3-methyl-4-(methylthio)phenoxy)-3-((4-phenylpiperazin-1-yl)methyl)benzenesulfonamide] | – | 20.2 µM | 43.1 µM | – | – | – | – | – | – |
| CC(=O)NCc1ccc2c(c1)[C@@H](N(C)C)CC[C@H]2c1ccc(Cl)c(Cl)c1 [N-(((5S,8S)-5-(3,4-dichlorophenyl)-8-(dimethylamino)-5,6,7,8-tetrahydronaphthalen-2-yl)methyl)acetamide] | 9.72 µM | 4.45 µM | 19.1 µM | – | 92% | – | – | – | – |
| CSc1ccc(Oc2ccc(S(N)(=O)=O)cc2CN2CC[C@@H](O)C2)cc1C [Compound 67, (R)-3-((3-hydroxypyrrolidin-1-yl)methyl)-4-(3-methyl-4-(methylthio)phenoxy)benzenesulfonamide] | 7.4 µM | 2.26 µM | > 50 µM | – | – | – | – | – | – |
| CN[C@H]1CC[C@@H](c2ccc(Cl)c(Cl)c2)c2ccc(CS(=O)(=O)c3ccccc3)cc21 [(1S,4S)-4-(3,4-dichlorophenyl)-N-methyl-7-(phenylsulfonylmethyl)-1,2,3,4-tetrahydronaphthalen-1-amine] | – | 6.24 µM | 6.7 µM | – | – | – | – | – | – |
| CNCc1ccccc1Oc1ccc(Br)cc1 [Compound 32] | – | 31.2 µM | > 50 µM | – | 30% | – | – | – | – |
| CNCc1ccccc1Oc1ccc(C(F)(F)F)cc1 [Compound 39, N-methyl-1-(2-(4-(trifluoromethyl)phenoxy)phenyl)methanamine] | 50 µM | 37.5 µM | > 50 µM | – | 91.7% | – | – | – | – |
| CNCc1cc(Br)ccc1Oc1ccc(SC)cc1 [Compound 34, (5-bromo-2-(4-(methylthio)phenoxy)phenyl)-N-methylmethanamine] | – | 24.6 µM | 35.5 µM | – | 72.6% | – | – | – | – |
| CN[C@H]1CC[C@@H](c2ccc(Cl)c(Cl)c2)c2ccc(C(=O)Nc3ccccc3)cc21 [Sertraline A-Ring Benzamide, (5S,8S)-5-(3,4-dichlorophenyl)-8-(methylamino)-N-phenyl-5,6,7,8-tetrahydronaphthalene-2-carboxamide] | – | 2.73 µM | 3.89 µM | – | 48.6% | – | – | – | – |
| CN[C@H]1CC[C@@H](c2ccc(Cl)c(Cl)c2)c2ccc(N(C)C)cc21 [Sertraline A-Ring N,N-Dimethylamine, (1S,4S)-4-(3,4-dichlorophenyl)-N1,N7,N7-trimethyl-1,2,3,4-tetrahydronaphthalene-1,7-diamine] | 5.82 µM | 3.52 µM | 6.22 µM | 3.52 µM | 35.1% | 6.22 µM | – | – | – |

| SMILES | IC90 ([1]; Huh-7) | IC50 [1, 3] | CC50 ([2]; CC50 (uM) [SG]) | IC50 ([1]; Huh-7) | Emax [1, 4] | CC50 ([2]; CC50 (uM)) | Emax [1, 5] | IC50 ([1]; Huh-7, 72 h) | CC50 at 72 h ([2]; CC50 (uM)) |
| --- | --- | --- | --- | --- | --- | --- | --- | --- | --- |
| CN(CCO)[C@H]1CC[C@@H](c2ccc(Cl)c(Cl)c2)c2ccccc21 [N-Ethanol Sertraline, 2-(((1S,4S)-4-(3,4-dichlorophenyl)-1,2,3,4-tetrahydronaphthalen-1-yl)(methyl)amino)ethanol] | 21.9 µM | 7.8 µM | 49.8 µM | – | 93% | – | – | – | – |
| CSc1ccc(Oc2ccc(S(N)(=O)=O)cc2CN2CCN(c3ccncc3)CC2)cc1C [Compound 91, 4-(3-methyl-4-(methylthio)phenoxy)-3-((4-(pyridin-4-yl)piperazin-1-yl)methyl)benzenesulfonamide] | – | 4.91 µM | 9.86 µM | – | – | – | – | – | – |
| N[C@H]1CC[C@@H](c2ccc(Cl)c(Cl)c2)c2ccccc21 [(1S,4S)-Desmethyl Sertraline, (1S,4S)-4-(3,4-dichlorophenyl)-1,2,3,4-tetrahydronaphthalen-1-amine] | – | 7.5 µM | 8.98 ± 0.1 µM | – | 0% | 8.98 ± 0.1 µM | 0% | 7.5 ± 0.4 µM | – |
| CN[C@@H]1CC[C@H](c2ccc(Cl)c(Cl)c2)c2ccccc21 [1R,4R Sertraline Enantiomer, (1R,4R)-4-(3,4-dichlorophenyl)-N-methyl-1,2,3,4-tetrahydronaphthalen-1-amine] | – | – | 14.6 ± 0.37 µM | – | 58.7 ± 23.6% | – | 42% | – | 14.3 µM |
| CNCc1cc(S(N)(=O)=O)ccc1Oc1ccc(SC)c(OC)c1 [Compound 75, 4-(3-methoxy-4-(methylthio)phenoxy)-3-((methylamino)methyl)benzenesulfonamide] | – | 11.9 µM | > 50 µM | – | – | – | – | – | – |
| CSc1ccc(Oc2ccc([N+](=O)[O-])cc2CN(C)C)cc1C [Compound 54, N,N-dimethyl-1-(2-(3-methyl-4-(methylthio)phenoxy)-5-nitrophenyl)methanamine] | 7.07 µM | 6.18 µM | > 50 µM | – | 97.9% | – | – | – | – |
| CNS(=O)(=O)c1ccc(Oc2ccc(SC)c(C)c2)c(CN(C)C)c1 [Compound 6, 3-((dimethylamino)methyl)-N-methyl-4-(3-methyl-4-(methylthio)phenoxy)benzenesulfonamide] | 14.8 µM | 5.8 µM | 45.3 µM | – | 93.2% | – | – | – | – |
| O=C1CC[C@@H](c2ccc(Cl)c(Cl)c2)c2ccccc21 [4S-Sertraline Ketone, (S)-4-(3,4-dichlorophenyl)-3,4-dihydronaphthalen-1(2H)-one] | – | 32.6 µM | > 50 µM | – | 77% | – | – | – | – |
| CSc1ccc(Oc2ccc(C#N)cc2CN(C)C)cc1C [Compound 7, 3-((dimethylamino)methyl)-4-(3-methyl-4-(methylthio)phenoxy)benzonitrile] | 11.5 µM | 6.4 µM | > 50 µM | – | 96.7% | – | – | – | – |
| CSc1ccc(Oc2ccc(S(=O)(=O)NCc3ccccc3)cc2CN(C)C)cc1C [Compound 14, N-benzyl-3-((dimethylamino)methyl)-4-(3-methyl-4-(methylthio)phenoxy)benzenesulfonamide] | – | 11.4 µM | 16.9 µM | – | 59% | – | – | – | – |
| CN[C@H]1CC[C@@H](c2ccc(Cl)c(Cl)c2)c2ccc(NC(=O)C3CCCC3)cc21 [N-((5S,8S)-5-(3,4-dichlorophenyl)-8-(methylamino)-5,6,7,8-tetrahydronaphthalen-2-yl)cyclopentanecarboxamide] | 5.89 µM | 4.02 µM | 7 µM | 4.02 µM | 22.9% | 7 µM | – | – | – |
| CSc1ccc(Oc2ccc(S(N)(=O)=O)cc2CN2CCCC2)cc1C [Compound 101, 4-(3-methyl-4-(methylthio)phenoxy)-3-(pyrrolidin-1-ylmethyl)benzenesulfonamide] | 4.74 µM | 1.74 µM | 40.6 µM | – | – | – | – | – | – |
| CNC1CCC(c2ccc(OC)cc2)c2ccccc21 (stereo not shown) [Sertraline B-Ring Para-Methoxy, 4-(4-methoxyphenyl)-N-methyl-1,2,3,4-tetrahydronaphthalen-1-amine] | – | 26.8 µM | 51.1 µM | – | – | – | – | – | – |
| COC[C@@H]1CCCN1Cc1cc(S(N)(=O)=O)ccc1Oc1ccc(SC)c(C)c1 [Compound 104, (S)-3-((2-(methoxymethyl)pyrrolidin-1-yl)methyl)-4-(3-methyl-4-(methylthio)phenoxy)benzenesulfonamide] | – | 27.8 µM | > 50 µM | – | – | – | – | – | – |
| CC(=O)Nc1ccc2c(c1)[C@@H](N(C)CCO)CC[C@H]2c1ccc(Cl)c(Cl)c1 [N-((5S,8S)-5-(3,4-dichlorophenyl)-8-((2-hydroxyethyl)(methyl)amino)-5,6,7,8-tetrahydronaphthalen-2-yl)acetamide] | – | 13.2 µM | 44.9 µM | – | – | – | – | – | – |
| Cc1cccc(Oc2ccc(S(N)(=O)=O)cc2CC(C)C)c1 [Compound 65, 3-isobutyl-4-(m-tolyloxy)benzenesulfonamide] | 50 µM | 30.7 µM | > 50 µM | – | – | – | – | – | – |

— US20100009970A1, “COMPOSITIONS AND METHODS FOR TREATMENT OF VIRAL DISEASES” (Combinatorx (Singapore) Pte. Ltd., priority 2008, published 2010)
